Marks after values point to notes of the source that are not given here.
Test system: chicken embryos
Test: Metabolic profiling of blood plasma (GC-MS, LC-MS, OPLS-DA)
Type: in vivo, Gallus gallus domesticus
Procedure: Controls were injected with 20 μL vehicle only (DMSO).
Plasma was collected and stored at -70°C.
Metabolites in allantoic fluid and blood plasma were analyzed using gas chromatography-mass spectrometry (GC-MS) and liquid chromatography-mass spectrometry (LC-MS) as described in S1 Methods. Prior to GC-MS and LC-MS analysis, allantoic fluid (100 μL) and blood plasma (50 μL) were extracted. To each sample, 900 μL (allantoic fluid) or 450 μL (blood plasma) of extraction buffer (90/10 v/v methanol:water) including all internal standards were added. Standards for GC-MS were proline, succinic acid, glutamic acid, salicylic acid, alpha-ketoglutarate, putrescine, myristic acid, hexadecanoic acid, cholesterol, and sucrose. Standards for LC-MS were Val-Tyr-Val, Leu-enkephalin, sulfadimethoxine and reserpine. Samples were homogenized by shaking in a bead mill at a frequency of 30 Hz for 3 minutes and proteins were precipitated at +4°C on ice. The samples were centrifuged at +4°C, 14000 rpm, for 10 min. Then, 200 μL supernatant was transferred to a GC microvial and 200 μL was transferred to an LC microvial, and solvents were evaporated. Samples from the four replicate experiments were analyzed using in chronological order and within each replicate experiment the run order of the individual samples was randomized.
Multivariate statistical analyses of metabolite profiles were performed using the software package SIMCA-P version 13.0 (Umetrics, Umeå, Sweden). Data was centered and scaled to variance 1 (UV scaling) prior to modelling. To reduce unintended systematic variation caused by sample processing and instrument drift, GC-MS and LC-MS metabolite amounts (expressed as the area under the chromatographic peak) were normalized by Orthogonal Partial Least Squares analysis (O2PLS) prior to multivariate data analysis. O2PLS finds common (predictive) and unique (orthogonal) variation in two data matrices. If applied to find the common variation between the data matrix containing the measured metabolite concentrations and a matrix containing only the internal standards, the only common (predictive) variation expected is due to the unintended systematic variation. By deleting the contribution of the predictive latent variables, that variation can be removed from the data. Models obtained after this normalization contain in general less latent variables, and this simplification helps when deciding on the number of latent variables to be used. Following normalization, GC-MS and LC-MS data were analyzed together. Initially, a global Principal Component Analysis (PCA) was performed to get an overview of groups and trends and to identify outliers. Projections to latent structures by means of Orthogonal Partial Least Squares Discriminant Analysis (OPLS-DA) was used to model the relationship between the X-matrix (metabolite concentrations) and the Y matrix (class, i.e. exposure group or sex), and to find x-variables that were related to class belonging. OPLS-DA is a supervised prediction and regression method that rotates the projection plane to find the maximum covariance between the data and the class assignment. All groups were first analyzed together in a 5-class OPLS-DA and then each exposure group was analyzed against the control group in a 2-class OPLS-DA. Sex differences were analyzed both using the whole data set and in each group separately using 2-class OPLS-DA, with females and males as the two classes. Only variables with 80% or more nonzero values were included in the statistical models. […] The validity of each model was also checked using CV-ANOVA (ANOVA of the cross-validated residuals). A significance level of p < 0.05 was used. For each model, R ^2 X, R ^2 Y and Q ^2 values were calculated, where R ^2 X is a measure of the fraction of x variation modeled in the extracted latent variables, R ^2 Y is a measure of the fraction of y variation modeled and Q ^2 is an estimate of the predictive ability of the model and is calculated by cross-validation. […]

CN(CCOc1ccc(CC2SC(=O)NC2=O)cc1)c1ccccn1 (centres unmarked) [Rosiglitazone, rosiglitazone, reference compound]
1.4*: Mean concentration relative to control, feature 755.5465@10.73882 (LC)
1.1*: Mean concentration relative to control, feature 1316.4163@1.9465046 (LC)
0.8**: Mean concentration relative to control, feature 118.0284@2.480333 (C4H6O4) (LC) | Mean concentration relative to control, feature 412.135@2.4779084 (C17H24N4O6S) (LC) | Mean concentration relative to control, feature 509.1184@2.4798179 (LC) | Mean concentration relative to control, feature 1591.051@5.0189176 (LC)
1.2: Mean concentration relative to control, feature Win039_C07 (GC) | Mean concentration relative to control, feature 250.1317@2.1334834 (LC) | Mean concentration relative to control, feature 339.3861@9.528681 (LC)
0.9*: Mean concentration relative to control, feature 215.047@1.6260729 (C5H14NO6P) (LC) | Mean concentration relative to control, feature 366.1431@1.4228548 (LC) | Mean concentration relative to control, feature 407.0999@1.585909 (LC) | Mean concentration relative to control, feature 1591.388@5.0202384 (LC) | Mean concentration relative to control, feature 1591.7203@5.018071 (LC)
1: Mean concentration relative to control, feature Win031_C03 (Citric acid) (GC) | Mean concentration relative to control, feature Win034_C08 (Tyrosine) (GC) | Mean concentration relative to control, feature Win043_C02 (Cystathionine) (GC) | Mean concentration relative to control, feature Win066_C03 (GC) | Mean concentration relative to control, feature Win088_C02 (GC) | Mean concentration relative to control, feature 122.0486@0.675613 (LC) | Mean concentration relative to control, feature 203.1162@0.5130696 (LC) | Mean concentration relative to control, feature 213.2458@7.4887733 (LC) | Mean concentration relative to control, feature 226.0721@1.9460537 (LC) | Mean concentration relative to control, feature 233.1265@2.535991 (LC) | Mean concentration relative to control, feature 293.0903@1.5739433 (LC) | Mean concentration relative to control, feature 310.178@7.5343466 (LC) | Mean concentration relative to control, feature 342.2883@7.526812 (LC) | Mean concentration relative to control, feature 348.0675@1.5761927 (LC) | Mean concentration relative to control, feature 355.9454@0.68034226 (LC) | Mean concentration relative to control, feature 373.296@9.044806 (LC) | Mean concentration relative to control, feature 375.3108@8.995564 (LC) | Mean concentration relative to control, feature 389.2686@9.046645 (LC) | Mean concentration relative to control, feature 471.9819@0.685074 (LC) | Mean concentration relative to control, feature 634.2403@1.9467853 (LC) | Mean concentration relative to control, feature 827.5078@8.831237 (LC) | Mean concentration relative to control, feature 1262.4865@1.947075 (LC)
1.2*: Mean concentration relative to control, feature Win006_C03 (GC) | Mean concentration relative to control, feature 558.4095@9.459733 (LC) | Mean concentration relative to control, feature 698.2598@1.3599721 (LC)
0.8*: Mean concentration relative to control, feature 231.0174@1.6241412 (LC) | Mean concentration relative to control, feature 260.0508@0.69984084 (LC)
1.0: Mean concentration relative to control, feature 126.0428@1.2278157 (Thymine) (LC) | Mean concentration relative to control, feature 659.5483@11.4915495 (LC) | Mean concentration relative to control, feature 875.4661@10.5661745 (LC)
1.1: Mean concentration relative to control, feature Win011_C02 (Isoleucine) (GC) | Mean concentration relative to control, feature Win034_C09 (Tyrosine) (GC) | Mean concentration relative to control, feature 146.0362@0.7772238 (LC) | Mean concentration relative to control, feature 159.0686@1.1608156 (LC) | Mean concentration relative to control, feature 164.0449@0.7694838 (LC) | Mean concentration relative to control, feature 202.1024@5.0303197 (C8H14N2O4) (LC) | Mean concentration relative to control, feature 362.1467@0.8461036 (LC) | Mean concentration relative to control, feature 565.1902@0.7699907 (LC) | Mean concentration relative to control, feature 577.2747@9.25652 (LC) | Mean concentration relative to control, feature 581.1643@0.77029324 (LC) | Mean concentration relative to control, feature 644.1614@0.7647065 (LC) | Mean concentration relative to control, feature 700.5514@10.765638 (LC)
0.9: Mean concentration relative to control, feature Win027_C13 (GC) | Mean concentration relative to control, feature Win061_C01 (GC) | Mean concentration relative to control, feature 276.0173@1.6283482 (LC) | Mean concentration relative to control, feature 278.0939@1.3354088 (LC) | Mean concentration relative to control, feature 307.2147@7.5065937 (C18H29NO3) (LC) | Mean concentration relative to control, feature 444.3607@10.33052 (LC) | Mean concentration relative to control, feature 525.2855@8.361063 (LC) | Mean concentration relative to control, feature 545.2492@8.463657 (LC)
0.7*: Mean concentration relative to control, feature 489.1508@8.562614 (LC)
